What is called DC50 is the concentration giving 50% degradation. The term Dmax denotes the greatest extent of degradation seen. Low readings indicate shallow degradation, high ones deep degradation.

Here are results for 14 compounds from patent US20230295118A1 (EnhancedBio Inc., priority 2022, published 2023).

pIC50: −log10 of the molar value. Read-outs that look alike come from different tables or passages of the source.

Common to all, as to type: cell-based
Test [1] has as its system mantle cell lymphoma cell (Mino or JeKo-1). Put plainly: Antiproliferative effect, MTS cell viability assay. The essentials:
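Mino cells treated with compounds at 0, 0.0001, 0.001, 0.01, 0.1, 1 μM for 72 h; palbociclib and abemaciclib as positive controls. Viability by MTS, formazan absorbance read at 490 nm.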

Test [2] has as its target T1, CDK4 (Homo sapiens, UniProt P11802).
T1 construct: endogenous in cells
The experiment in a line: CDK4 degradation (DC50, Dmax).

The target in test [3] is T2, CDK6 (Homo sapiens, UniProt Q00534).
T2 construct: endogenous in cells
T2 sequence (Q00534 whole entry): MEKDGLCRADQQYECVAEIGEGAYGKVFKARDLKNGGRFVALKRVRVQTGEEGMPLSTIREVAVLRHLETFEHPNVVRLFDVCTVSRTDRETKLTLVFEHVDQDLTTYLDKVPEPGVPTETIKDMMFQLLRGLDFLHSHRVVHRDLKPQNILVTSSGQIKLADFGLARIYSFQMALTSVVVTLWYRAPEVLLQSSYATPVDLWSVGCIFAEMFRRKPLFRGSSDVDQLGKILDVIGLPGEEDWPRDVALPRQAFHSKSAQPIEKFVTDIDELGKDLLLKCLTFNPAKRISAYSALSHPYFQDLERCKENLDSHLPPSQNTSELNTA
The experiment in a line: CDK6 degradation (DC50, Dmax).

[4] abbreviates: 72 h, mantle cell lymphoma cell (Mino or JeKo-1), MTS assay, read-out: IC50 (anti-proliferation).
The mark [5] stands for this setting: Mino cells; 0-1 μM; 72 h; result in words.

T1 sequence (P11802 whole entry): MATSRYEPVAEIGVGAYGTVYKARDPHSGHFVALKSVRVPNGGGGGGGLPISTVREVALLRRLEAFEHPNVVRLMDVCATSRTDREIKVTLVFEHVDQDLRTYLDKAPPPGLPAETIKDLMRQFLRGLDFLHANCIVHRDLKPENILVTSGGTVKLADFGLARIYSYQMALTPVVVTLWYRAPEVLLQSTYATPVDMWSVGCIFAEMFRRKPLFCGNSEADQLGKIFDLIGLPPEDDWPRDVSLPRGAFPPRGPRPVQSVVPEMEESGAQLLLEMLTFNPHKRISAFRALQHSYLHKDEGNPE

With `CC(=O)c1c(C)c2cnc(Nc3ccc(N4CCN(C(=O)N5CCN(CC6CCN(c7ccc8c(c7)CN(C7CCC(=O)NC7=O)C8=O)CC6)CC5)CC4)cn3)nc2n(C2CCCC2)c1=O` (stereo not shown) [Compound 16, 3-(5-(4-((4-(4-(6-((6-acetyl-8-cyclopentyl-5-methyl-7-oxo-7,8-dihydropyrido[2,3-d]pyrimidin-2-yl)amino)pyridin-3-yl)piperazine-1-carbonyl)piperazin-1-yl)methyl)piperidin-1-yl)-1-oxoisoindolin-2-yl)piperidine-2,6-dione], in test [1] (setting [4]), the pIC50 was less than 6.70. The DC50 in test [2] and in test [3] was more than 200 nM throughout. Moreover, the Dmax in test [2] and in test [3] was more than 50% each time.
Consider `CC(=O)c1c(C)c2cnc(Nc3ccc(N4CCN(C5CCN(c6cccc7c6C(=O)N(C6CCC(=O)NC6=O)C7=O)CC5)CC4)cn3)nc2n(C2CCCC2)c1=O` (stereo not shown) [Compound 77, 4-(4-(4-(6-((6-acetyl-8-cyclopentyl-5-methyl-7-oxo-7,8-dihydropyrido[2,3-d]pyrimidin-2-yl)amino)pyridin-3-yl)piperazin-1-y1)piperidin-1-yl)-2-(2,6-dioxopiperidin-3-yl) isoindoline-1,3-dione], for which the pIC50 in test [1] (setting [4]) is 6.70 to 7.30. In test [2], this compound had a DC50 of 50 to 200 nM and a Dmax of more than 60%. Besides, in test [3], the DC50 fell in the range of 50 to 200 nM and the Dmax is more than 60%.
Take `CC(=O)c1c(C)c2cnc(Nc3ccc(N4CCN(CCN(C)c5ccc6c(c5)CN(C5CCC(=O)NC5=O)C6=O)CC4)cn3)nc2n(C2CCCC2)c1=O` (stereo not shown) [Compound 56, 3-(5-((2-(4-(6-((6-acetyl-8-cyclopentyl-5-methyl-7-oxo-7,8-dihydropyrido[2,3-d]pyrimidin-2-yl)amino)pyridin-3-yl)piperazin-1-yl)ethyl)(methyl)amino)-1-oxoisoindolin-2-yl)piperidine-2,6-dione]: in test [1] (setting [4]), the pIC50 is 6.70 to 7.30. In test [2], this compound yielded a DC50 of 50 to 200 nM and a Dmax of more than 60%. In addition, in test [3], the DC50 was in the range of 50 to 200 nM and the Dmax was more than 60%.
Turning to `CC(=O)c1c(C)c2cnc(Nc3ccc(N4CCN(C(=O)N5CCN(c6ccc7c(c6)C(=O)N(C6CCC(=O)NC6=O)C7=O)CC5)CC4)cn3)nc2n(C2CCCC2)c1=O` (stereo not shown) [Compound 1, 5-(4-(4-(6-((6-acetyl-8-cyclopentyl-5-methyl-7-oxo-7,8-dihydropyrido[2,3-d]pyrimidin-2-yl)amino)pyridin-3-yl)piperazine-1-carbonyl)piperazin-1-yl)-2-(2,6-dioxopiperidin-3-yl) isoindoline-1,3-dione], the pIC50 in test [1] (mantle cell lymphoma cell (Mino or JeKo-1); MTS assay, 72 h; read-out: IC50 (anti-proliferation)) was more than 7.30. The DC50 was 50 to 200 nM in test [2] and less than 50 nM in test [3]. The Dmax in test [2] and in test [3] was more than 60% throughout.
For `CC(=O)c1c(C)c2cnc(Nc3ccc(N4CCN(C5CCN(c6ccc7c(c6)C(=O)N(C6CCC(=O)NC6=O)C7=O)CC5)CC4)cn3)nc2n(C2CCCC2)c1=O` (stereo not shown) [Compound 63, 5-(4-(4-(6-((6-acetyl-8-cyclopentyl-5-methyl-7-oxo-7,8-dihydropyrido[2,3-d]pyrimidin-2-yl)amino)pyridin-3-yl)piperazin-1-yl)piperidin-1-yl)-2-(2,6-dioxopiperidin-3-yl)isoindoline-1,3-dione], the pIC50 in test [1] (setting [4]) is more than 7.30. Also, in test [1] (setting [5]), the “inhibition of cell proliferation of Mino cells” value (shortened to “inhibition”) is recorded as “dose-dependent inhibition of cell proliferation”. Also, the DC50 is 50 to 200 nM in test [2] and less than 50 nM in test [3]. Besides, the Dmax in test [2] and in test [3] was more than 80% in each case.
On to `CC(=O)c1c(C)c2cnc(Nc3ccc(N4CCN(C(=O)N5CCC(CCN6CCC(c7ccc8c(c7)CN(C7CCC(=O)NC7=O)C8=O)CC6)CC5)CC4)cn3)nc2n(C2CCCC2)c1=O` (stereo not shown) [Compound 30, 3-(5-(1-(2-(1-(4-(6-((6-acetyl-8-cyclopentyl-5-methyl-7-oxo-7,8-dihydropyrido[2,3-d]pyrimidin-2-yl)amino)pyridin-3-yl)piperazine-1-carbonyl)piperidin-4-yl)ethyl)piperidin-4-yl)-1-oxoisoindolin-2-yl)piperidine-2,6-dione], for which the pIC50 in test [1] (setting [4]) was less than 6.70. In test [2], this compound gave a DC50 of more than 200 nM and a Dmax of more than 50%. For the same compound, in test [3], the DC50 is more than 200 nM and the Dmax is more than 50%.
For `Cc1nc2c(F)cc(-c3nc(Nc4ccc(CC5CCN(C(=O)C6CN(c7ccc(NC8CCC(=O)NC8=O)cc7)C6)CC5)cn4)ncc3F)cc2n1C(C)C` (stereo not shown) [Compound 146, 3-((4-(3-(4-((6-((5-fluoro-4-(4-fluoro-1-isopropyl-2-methyl-1H-benzo[d]imidazol-6-yl)pyrimidin-2-yl)amino)pyridin-3-yl)methyl)piperidine-1-carbonyl)azetidin-1-yl)phenyl)amino) piperidine-2,6-dione], in test [1] (setting [4]), the pIC50 is 6.70 to 7.30. Also, in test [2], the DC50 lay within 50 to 200 nM and the Dmax was more than 50%. Moreover, in test [3], the DC50 lay within 50 to 200 nM and the Dmax is more than 60%.
As for `CC(=O)c1c(C)c2cnc(Nc3ccc(N4CCN(C(=O)N5CCN(CCC6CCN(c7ccc8c(c7)CN(C7CCC(=O)NC7=O)C8=O)CC6)CC5)CC4)cn3)nc2n(C2CCCC2)c1=O` (stereo not shown) [Compound 24, 3-(5-(4-(2-(4-(4-(6-((6-acetyl-8-cyclopentyl-5-methyl-7-oxo-7,8-dihydropyrido[2,3-d]pyrimidin-2-yl)amino)pyridin-3-yl)piperazine-1-carbonyl)piperazin-1-yl)ethyl)piperidin-1-yl)-1-oxoisoindolin-2-yl)piperidine-2,6-dione], the pIC50 in test [1] (setting [4]) is less than 6.70. For the same compound, the DC50 in test [2] and in test [3] was more than 200 nM each time. Moreover, the Dmax in test [2] and in test [3] was more than 50% throughout.
Regarding `CC(=O)c1c(C)c2cnc(Nc3ccc(N4CCN(C5CCN(C(=O)N6CCN(c7ccc8c(c7)CN(C7CCC(=O)NC7=O)C8=O)CC6)CC5)CC4)cn3)nc2n(C2CCCC2)c1=O` (stereo not shown) [Compound 36, 3-(5-(4-(4-(4-(6-((6-acetyl-8-cyclopentyl-5-methyl-7-oxo-7,8-dihydropyrido[2,3-d]pyrimidin-2-yl)amino)pyridin-3-yl)piperazin-1-yl)piperidine-1-carbonyl)piperazin-1-yl)-1-oxoisoindolin-2-yl)piperidine-2,6-dione], the pIC50 in test [1] (setting [4]) was 6.70 to 7.30. In addition, the DC50 in test [2] and in test [3] was more than 200 nM throughout. Moreover, the Dmax in test [2] and in test [3] was more than 60% throughout.
As for `CC(=O)c1c(C)c2cnc(Nc3ccc(N4CCN(C(=O)N5CCC(C6CCN(c7ccc8c(c7)CN(C7CCC(=O)NC7=O)C8=O)CC6)CC5)CC4)cn3)nc2n(C2CCCC2)c1=O` (stereo not shown) [Compound 10, 3-(5-(1′-(4-(6-((6-acetyl-8-cyclopentyl-5-methyl-7-oxo-7,8-dihydropyrido[2,3-d]pyrimidin-2-yl)amino)pyridin-3-yl)piperazine-1-carbonyl)-[4,4′-bipiperidin]-1-yl)-1-oxoisoindolin-2-yl)piperidine-2,6-dione], the pIC50 in test [1] (setting [4]) was less than 6.70. Also, in test [2], the DC50 is more than 200 nM and the Dmax was more than 50%. In test [3], this compound registered a DC50 of more than 200 nM and a Dmax of more than 50%.
Regarding `Cc1nc2c(F)cc(-c3nc(Nc4ccc(CN5CCN(C(=O)C6CN(c7ccc(NC8CCC(=O)NC8=O)cc7)C6)CC5)cn4)ncc3F)cc2n1C(C)C` (stereo not shown) [Compound 138, 3-((4-(3-(4-((6-((5-fluoro-4-(4-fluoro-1-isopropyl-2-methyl-1H-benzo[d]imidazol-6-yl)pyrimidin-2-yl)amino)pyridin-3-yl)methyl)piperazine-1-carbonyl)azetidin-1-yl)phenyl)amino) piperidine-2,6-dione], the pIC50 in test [1] (setting [4]) was 6.70 to 7.30. Further, the DC50 in test [2] and in test [3] was 50 to 200 nM each time. For the same compound, the Dmax in test [2] and in test [3] was more than 60% each time.
Regarding `CC(=O)c1c(C)c2cnc(Nc3ccc(N4CCN(CC5CCN(C(=O)Nc6ccc7c(c6)CN(C6CCC(=O)NC6=O)C7=O)CC5)CC4)cn3)nc2n(C2CCCC2)c1=O` (stereo not shown) [Compound 42, 4-((4-(6-((6-acetyl-8-cyclopentyl-5-methyl-7-oxo-7,8-dihydropyrido[2,3-d]pyrimidin-2-yl)amino)pyridin-3-yl)piperazin-1-yl)methyl)-N-(2-(2,6-dioxopiperidin-3-yl)-1-oxoisoindolin-5-yl)piperidine-1-carboxamide], in test [1] (setting [4]), the pIC50 was 6.70 to 7.30. Also, in test [2], the DC50 was 50 to 200 nM and the Dmax is more than 80%. In test [3], this compound returned a DC50 of 50 to 200 nM and a Dmax of more than 80%.
With `CC(=O)c1c(C)c2cnc(Nc3ccc(N4CCN(CCCN(C)c5cccc6c5C(=O)N(C5CCC(=O)NC5=O)C6=O)CC4)cn3)nc2n(C2CCCC2)c1=O` (stereo not shown) [Compound 103, 4-((3-(4-(6-((6-acetyl-8-cyclopentyl-5-methyl-7-oxo-7,8-dihydropyrido[2,3-d]pyrimidin-2-yl)amino)pyridin-3-yl)piperazin-1-yl)propyl)(methyl)amino)-2-(2,6-dioxopiperidin-3-yl) isoindoline-1,3-dione], in test [1] (setting [4]), the pIC50 is more than 7.30. The “inhibition” value in test [1] (setting [5]) is recorded as “dose-dependent inhibition of cell proliferation”. In test [2], this compound displayed a DC50 of 50 to 200 nM and a Dmax of more than 60%. In addition, in test [3], the DC50 lay within 50 to 200 nM and the Dmax was more than 60%.
In the case of `CC(=O)c1c(C)c2cnc(Nc3ccc(N4CCN(CCCNc5ccc6c(c5)CN(C5CCC(=O)NC5=O)C6=O)CC4)cn3)nc2n(C2CCCC2)c1=O` (stereo not shown) [Compound 50, 3-(5-((3-(4-(6-((6-acetyl-8-cyclopentyl-5-methyl-7-oxo-7,8-dihydropyrido[2,3-d]pyrimidin-2-yl)amino)pyridin-3-yl)piperazin-1-yl)propyl)amino)-1-oxoisoindolin-2-yl)piperidine-2,6-dione], the pIC50 in test [1] (setting [4]) was more than 7.30. Besides, the “inhibition” value in test [1] (setting [5]) is listed as “dose-dependent inhibition of cell proliferation”. In test [2], this compound returned a DC50 of less than 50 nM and a Dmax of more than 80%. In test [3], this compound displayed a DC50 of less than 50 nM and a Dmax of more than 80%.
